In experiment [1] the target is T1, M2-type muscarinic cholinergic receptor (Cavia porcellus, UniProt H0VRN8).
T1 construct: on a smooth guinea-pig ileum muscle homogenate; from tissue; host or cells: guinea-pig ileum smooth muscle homogenate
T1 sequence (H0VRN8 1-466): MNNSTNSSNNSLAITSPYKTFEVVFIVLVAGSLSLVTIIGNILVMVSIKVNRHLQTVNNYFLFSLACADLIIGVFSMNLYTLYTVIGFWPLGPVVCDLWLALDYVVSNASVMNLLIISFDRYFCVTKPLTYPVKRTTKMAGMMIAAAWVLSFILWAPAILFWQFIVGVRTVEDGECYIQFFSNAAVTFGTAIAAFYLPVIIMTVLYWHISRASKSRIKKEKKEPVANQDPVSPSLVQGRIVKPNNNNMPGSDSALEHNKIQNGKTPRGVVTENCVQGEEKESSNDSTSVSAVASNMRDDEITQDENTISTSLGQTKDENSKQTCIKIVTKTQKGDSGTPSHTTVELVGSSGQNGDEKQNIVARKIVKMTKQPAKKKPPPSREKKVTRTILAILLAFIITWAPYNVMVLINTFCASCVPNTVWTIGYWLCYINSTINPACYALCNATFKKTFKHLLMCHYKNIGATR
The experiment in a line: affinity for the M2-type muscarinic cholinergic receptor ([3H]-N-methylscopolamine displacement, smooth guinea-pig ileum muscle homogenate). It counts as binding. Conditions: [3H]-NMS 0.3 nM, 20 min at 30° C., pH 7.5. On the procedure:
The M1 -type receptors are concentrated in certain regions of the brain, such as the hippocampus, the cerebral cortex and the striatum, and also in the sympathetic ganglia. These binding sites can be selectively labeled with [^3 H]-pirenzepine ([^3 H]-PZ). The M2 -type rreceptors predominate in the heart and the ileum and can be labeled with [^3 H]-N-methylscopolamine ([^3 H]-NMS). The selectivity of the compounds of the invention with respect to the M1 and M2 sites was determined by studying their in vitro interaction with [^3 H]-PZ and [^3 H]-NMS firmly bound with a high affinity to rat hippocampus membranes and smooth guinea-pig ileum muscle, respectively.
The interaction with the M2 -type muscarinic receptors was studied by in vitro measurement, on a smooth guinea-pig ileum muscle homogenate, of the displacement of tritiated N-methylscopolamine ([^3 H]-NMS) from its specific binding sites. Aliquots (50 μl) of a 0.625% (w/v) smooth guinea-pig ileum muscle homogenate in HEPES buffer (20 mM) containing NaCl (100 mM) and MgCl2 (10 mM) (final pH: 7.5) are incubated for 20 min at 30° C. in the presence of [^3 H]-NMS ([…]; final concentration 0.3 nM) and increasing concentrations of the test products. The final volume is 1 ml. The reaction is topped by centrifugation for 5 min at 15 000×g. The non-specific binding is determined in the presence of 10 μM atropine sulfate. (Ref.: R. Hammer, C. P. Berrie, N. I. M. Birdsall, A. S. V. Burgen and E. C. Hulme, Nature, 283, 90-92, 1980; E. C. Hulme, N. I. M. Birdsall, A. S. V. Burgen and P. Mettha, Mol. Pharmacol., 14, 737-750, 1978.)
Table 5 indicates the affinities of the products of the invention for the M1 and M2 receptors. The results are expressed as 50 percent inhibitory concentrations (IC50), i.e. the concentration (in μM) which induces the displacement of 50% of the tritiated ligand bound to the membrane receptors. The IC50 for ^3 H-pirenzepine displacement represents the affinity for the M1 receptor; The IC50 for ^3 H-NMS displacement represents the affinity for the M2 receptor.

Experiment [2] relates to rotatory behavior induced by intrastriatal pirenzepine. Kind of experiment: antagonism of rotatory behavior induced by intrastriatal injection of pirenzepine in mice. Particulars: Mus musculus, ip; 50% reduction in number of rotations; i.p. 15 minutes before pirenzepine 1 μg into right striatum. The experiment is classed as in vivo, mouse (female, Swiss, CD 1). On the procedure: The intrastriatal injection of PZ into mice induces rotatory behavior. The antagonism of this behavior by the products according to the invention was studied. The products according to the invention are injected intraperitoneally (i.p.) after solubilization in distilled water or suspension in a 5% solution of gum arabic. The control animals receive an injection of the pure solvent under the ssame conditions. The animals used are female mice (Swiss, CD 1, Charles River, France) with a body weight of between 25 and 30 grams. The pirenzepine is dissolved in a phosphate buffer and the pH of the solution is 6. The test products of their solvents are injected intraperitoneally in a volume of 0.4 ml per 20 g of body weight, 15 minutes before a direct injection of pirenzepine into the right striatum of the mouse at a dose of 1 μg in 1 μl of solvent, according to the method described by P. WORMS et al. in Eur. J. Pharmacol., 1986, 121, 395-401. The number of contralateral rotations (rotations in the opposite direction to the side injected) was counted for three 2-minute periods after injection of the pirenzepine: 2nd to 4th, 8th to 10th and 13th to 15th minutes. Each treatment consists of 3 to 4 doses with 10 animals per dose. The total number of rotations and the percentage antagonism with respect to the control group are calculated for each treatment. The 50% effective dose (ED50), i.e. the dose which causes a 50% reduction in the number of rotations induced by pirenzepine, is determined graphically for each product.

Experiment [3] deals with T2, M1-type muscarinic cholinergic receptor (Rattus norvegicus, UniProt P08482).
T2 sequence (P08482 1-460): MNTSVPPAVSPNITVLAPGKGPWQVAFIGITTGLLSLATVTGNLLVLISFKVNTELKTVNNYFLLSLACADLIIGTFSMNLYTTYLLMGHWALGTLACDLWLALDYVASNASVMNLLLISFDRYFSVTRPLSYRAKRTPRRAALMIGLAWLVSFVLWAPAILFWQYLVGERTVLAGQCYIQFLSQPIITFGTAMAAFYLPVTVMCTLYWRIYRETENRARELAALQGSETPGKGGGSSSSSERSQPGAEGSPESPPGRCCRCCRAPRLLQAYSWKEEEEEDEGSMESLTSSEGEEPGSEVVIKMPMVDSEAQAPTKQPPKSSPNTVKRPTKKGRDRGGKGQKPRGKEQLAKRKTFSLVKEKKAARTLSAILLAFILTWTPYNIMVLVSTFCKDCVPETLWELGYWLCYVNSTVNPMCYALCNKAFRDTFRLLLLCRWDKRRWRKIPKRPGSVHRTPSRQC
Kind of experiment: affinity for the M1-type muscarinic cholinergic receptor ([3H]-pirenzepine displacement, rat hippocampus homogenate). The experiment is classed as binding. Particulars: for IC50: [3H]-PZ 1 nM, rat hippocampus homogenate, 2 h at 4° C., pH 7.40; for r = (M2/M1): ratio of the IC50 values for M2 (3H-NMS) and M1 (3H-pirenzepine), selectivity.
Experimental: The interaction of the molecules with the M1 -type muscarinic receptors was studied by in vitro measurement, on a rat hippocampus homogenate, of the displacement of tritiated pirenzepine ([^3 H]-PZ) from its specific binding sites. Aliquots (10 μl) of a 5% (w/v) rat hippocampus homogenate in an Na2 HPO4 buffer (50 mM, pH 7.40) are incubated for 2 h at 4° C. in the presence of [^3 H]-PZ (76 Ci/nmol; final concentration 1 nM) and increasing concentrations of the test product. The final volume is 2 ml. The reaction is stopped by centrifugation for 10 min at 50 000×g. After decantation and washing of the residues, the bound radio-activity is counted by liquid scintillation. The non-specific binding is determined in the presence of 10 μM atropine sulfate. The 50% inhibitory concentration (IC50) is determined graphically.

As for `Cc1cc(-c2ccccc2)nn2c(CN3CCOCC3)cnc12.Cl.Cl` [SR 95950 A, 8-Methyl-3-morpholinomethyl-6-phenylimidazo[1,2-b]pyridazine dihydrochloride], the results for the IC50 in experiment [1] and in experiment [3] were more than 100 µM and 1.4 µM, respectively. Moreover, the ED50 (as a rule, the dose that gives a 50% effect, or the effect in half of the subjects) in experiment [2] worked out at 5 mg/kg. Also, in experiment [3], the “r = (M2/M1)” value is reported as more than 71.

`c1ccc(-c2cc(-c3ccccc3)c3ncc(CN4CCOCC4)n3n2)cc1` [SR 96111 A] gave an ED50 in experiment [2] of 7 mg/kg.

In the case of `c1ccc(-c2ccc3ncc(CN4CCOCC4)n3n2)cc1` [SR 96068 A], it took a dose of 10 mg/kg to reach the 50% effect level in experiment [2] (ED50).

On to `Clc1ccc(-c2ccc3nc(CN4CCOCC4)cn3n2)cc1` [SR 96089 A], for which the IC50 (as a rule, the concentration that inhibits the measured activity by half) is more than 100 µM in experiment [1] and 3 µM in experiment [3]. Also, in experiment [3], the “r = (M2/M1)” value is reported as more than 33.

Compound `COc1cccc(-c2cc(C)c3ncc(CN4CCOCC4)n3n2)c1` [SR 96088 A] had a half-inhibitory concentration (IC50) in experiment [3] of 8 µM.

On to `CCN(CC)Cc1cn2nc(-c3cccc(OC)c3)cc(C)c2n1` [SR 96095 A], for which the half-inhibitory concentration (IC50) was determined as 65 µM in experiment [1] and 0.4 µM in experiment [3]. The same compound yielded a 50% effective dose (ED50) in experiment [2] of 5 mg/kg. For the same compound, the “r = (M2/M1)” value in experiment [3] came out at 162.

Compound `CN(C)Cc1cnc2ccc(-c3ccccc3)nn12` [SR 96070 A] had an ED50 in experiment [2] of 3 mg/kg.

For the compound `c1ccc(-c2ccc3nc(CN4CCOCC4)cn3n2)cc1` [SR 95842 A], the ED50 in experiment [2] came to 3 mg/kg.

Take `CCN(CC)Cc1cn2nc(-c3ccccc3)ccc2n1` [SR 96069 A]: the IC50 in experiment [1] was 100 µM; in experiment [3] it was 1.5 µM. The “r = (M2/M1)” value in experiment [3] is given as 66.

The compound `Clc1ccc(-c2ccc3ncc(CN4CCOCC4)n3n2)cc1` [SR 96109 A] displayed an ED50 in experiment [2] of 8 mg/kg.

In experiment [1], `CCN(CC)Cc1cn2nc(-c3ccccc3)cc(C)c2n1.Cl.Cl` [SR 96052 A, 2-Diethylaminomethyl-8-methyl-6-phenylimidazo[1,2-b]pyridazine dihydrochloride] yielded an IC50 of 65 µM. Moreover, it took a dose of 8 mg/kg to reach the 50% effect level in experiment [2] (ED50). Also, in experiment [3], the IC50 was determined as 0.5 µM and the “r = (M2/M1)” value was 130.

For the origin of these results see patent US4910199A, “Imidazo[1,2-]pyridazines for cortical cholinergic deficiencies” (Sanofi, priority 1987, dated 1990).
